Experimental data as given in US8952024B2, “Herbicidal pyrimidone derivatives” (E I du Pont de Nemours and Company, priority 2009, dated 2015).

What was measured:
Assay in all cases: Test B pre-/postemergence plant response
Type in all cases: in vivo
Conditions in all cases: Postemergence
[1] = test system: wheat (Triticum aestivum)
Summary of the method: (§1)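 Greenhouse herbicide screen. Pre- and postemergence (1- to 4-leaf) spray of compound in solvent/surfactant mixture; loam–sand soil for pre, peat/vermiculite medium for post. Visual control rating 0–100 at 13 to 15 days after treatment.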

[2] = test system: large crabgrass (Digitaria sanguinalis)
Summary of the method: as §1

soybean (Glycine max) = test system: soybean (Glycine max)
Summary of the method: as §1

kochia (Kochia scoparia) = test system: kochia (Kochia scoparia)
Summary of the method: as §1

[3] = test system: bermudagrass (Cynodon dactylon)
Summary of the method: as §1

[4] = test system: downy bromegrass (Bromus tectorum)
Summary of the method: as §1

[5] = test system: velvetleaf (Abutilon theophrasti)
Summary of the method: as §1

[6] = test system: yellow nutsedge (Cyperus esculentus)
Summary of the method: as §1

[7] = test system: woolly cupgrass (Eriochloa villosa)
Summary of the method: as §1

[8] = test system: morningglory (Ipomoea coccinea)
Summary of the method: as §1

[9] = test system: cocklebur (Xanthium strumarium)
Summary of the method: as §1

[10] = test system: Italian ryegrass (Lolium multiflorum)
Summary of the method: as §1

[11] = 31 g ai/ha, 0 to 100 scale (0 no effect, 100 complete control)
[12] = 62 g ai/ha, scale 0 to 100 (0 no effect, 100 complete control)
[13] = 250 g ai/ha, scale 0 to 100 (0 no effect, 100 complete control), 13 to 15 days
[14] = 125 g ai/ha, scale 0 to 100 (0 no effect, 100 complete control)

SMILES: CCCn1c(-c2ccsc2)ncc(C(=O)C2=C(O)C3CCC(C3)C2=O)c1=O (stereo not drawn) [Compound 227]
- Plant response rating, Wheat [1, 11]: 0
- Plant response rating, Wheat [1, 12]: 0
- Plant response rating, Wheat [1, 13]: 20
- Plant response rating, Crabgrass, Large [2, 11]: 80
- Plant response rating, Crabgrass, Large [2, 12]: 80
- Plant response rating, Crabgrass, Large [2, 14]: 85
- Plant response rating, Crabgrass, Large [2, 13]: 90
- Plant response rating, Soybean (soybean (Glycine max); [11]): 55
- Plant response rating, Soybean (soybean (Glycine max); [12]): 65
- Plant response rating, Soybean (soybean (Glycine max); [13]): 98
- Plant response rating, Kochia (kochia (Kochia scoparia); [11]): 70
- Plant response rating, Kochia (kochia (Kochia scoparia); [12]): 75
- Plant response rating, Kochia (kochia (Kochia scoparia); [14]): 85
- Plant response rating, Kochia (kochia (Kochia scoparia); [13]): 100
- Plant response rating, Bermudagrass [3, 11]: 75
- Plant response rating, Bermudagrass [3, 12]: 75
- Plant response rating, Bermudagrass [3, 14]: 85
- Plant response rating, Bermudagrass [3, 13]: 90
- Plant response rating, Bromegrass, Downy [4, 11]: 0
- Plant response rating, Bromegrass, Downy [4, 12]: 0
- Plant response rating, Bromegrass, Downy [4, 14]: 0
- Plant response rating, Bromegrass, Downy [4, 13]: 25
- Plant response rating, Velvetleaf [5, 11]: 80
- Plant response rating, Velvetleaf [5, 12]: 80
- Plant response rating, Velvetleaf [5, 13]: 98
- Plant response rating, Nutsedge, Yellow [6, 11]: 10
- Plant response rating, Nutsedge, Yellow [6, 12]: 45
- Plant response rating, Nutsedge, Yellow [6, 14]: 65
- Plant response rating, Nutsedge, Yellow [6, 13]: 65
- Plant response rating, Cupgrass, Woolly [7, 11]: 55
- Plant response rating, Cupgrass, Woolly [7, 12]: 75
- Plant response rating, Cupgrass, Woolly [7, 14]: 90
- Plant response rating, Cupgrass, Woolly [7, 13]: 95
- Plant response rating, Morningglory [8, 11]: 100
- Plant response rating, Morningglory [8, 12]: 100
- Plant response rating, Morningglory [8, 14]: 100
- Plant response rating, Morningglory [8, 13]: 100
- Plant response rating, Cocklebur [9, 11]: 75
- Plant response rating, Cocklebur [9, 12]: 80
- Plant response rating, Cocklebur [9, 14]: 95
- Plant response rating, Cocklebur [9, 13]: 95
- Plant response rating, Ryegrass, Italian [10, 11]: 0
- Plant response rating, Ryegrass, Italian [10, 12]: 0
- Plant response rating, Ryegrass, Italian [10, 13]: 10

SMILES: COCCn1c(-c2ccsc2)ncc(C(=O)C2=C(O)C3CCC(C3)C2=O)c1=O (stereo not drawn) [Compound 228]
- Plant response rating, Wheat [1, 11]: 0
- Plant response rating, Wheat [1, 12]: 5
- Plant response rating, Wheat [1, 13]: 35
- Plant response rating, Crabgrass, Large [2, 11]: 80
- Plant response rating, Crabgrass, Large [2, 12]: 98
- Plant response rating, Crabgrass, Large [2, 14]: 98
- Plant response rating, Crabgrass, Large [2, 13]: 98
- Plant response rating, Soybean (soybean (Glycine max); [11]): 95
- Plant response rating, Soybean (soybean (Glycine max); [12]): 98
- Plant response rating, Soybean (soybean (Glycine max); [13]): 100
- Plant response rating, Kochia (kochia (Kochia scoparia); [11]): 90
- Plant response rating, Kochia (kochia (Kochia scoparia); [12]): 100
- Plant response rating, Kochia (kochia (Kochia scoparia); [14]): 100
- Plant response rating, Kochia (kochia (Kochia scoparia); [13]): 100
- Plant response rating, Bermudagrass [3, 11]: 80
- Plant response rating, Bermudagrass [3, 12]: 85
- Plant response rating, Bermudagrass [3, 14]: 90
- Plant response rating, Bermudagrass [3, 13]: 95
- Plant response rating, Bromegrass, Downy [4, 11]: 5
- Plant response rating, Bromegrass, Downy [4, 12]: 5
- Plant response rating, Bromegrass, Downy [4, 14]: 10
- Plant response rating, Bromegrass, Downy [4, 13]: 10
- Plant response rating, Velvetleaf [5, 11]: 80
- Plant response rating, Velvetleaf [5, 12]: 100
- Plant response rating, Velvetleaf [5, 13]: 100
- Plant response rating, Nutsedge, Yellow [6, 11]: 40
- Plant response rating, Nutsedge, Yellow [6, 12]: 45
- Plant response rating, Nutsedge, Yellow [6, 14]: 60
- Plant response rating, Nutsedge, Yellow [6, 13]: 70
- Plant response rating, Cupgrass, Woolly [7, 11]: 75
- Plant response rating, Cupgrass, Woolly [7, 12]: 95
- Plant response rating, Cupgrass, Woolly [7, 14]: 95
- Plant response rating, Cupgrass, Woolly [7, 13]: 98
- Plant response rating, Morningglory [8, 11]: 100
- Plant response rating, Morningglory [8, 12]: 100
- Plant response rating, Morningglory [8, 14]: 100
- Plant response rating, Morningglory [8, 13]: 100
- Plant response rating, Cocklebur [9, 11]: 98
- Plant response rating, Cocklebur [9, 12]: 98
- Plant response rating, Cocklebur [9, 14]: 100
- Plant response rating, Cocklebur [9, 13]: 100
- Plant response rating, Ryegrass, Italian [10, 11]: 0
- Plant response rating, Ryegrass, Italian [10, 12]: 0
- Plant response rating, Ryegrass, Italian [10, 13]: 0

SMILES: O=C(C1=C(O)C2CCC(C2)C1=O)c1cnc(-c2ccsc2)n(CC2CCCO2)c1=O (stereo not drawn) [Compound 229]
- Plant response rating, Wheat [1, 11]: 0
- Plant response rating, Wheat [1, 12]: 0
- Plant response rating, Wheat [1, 13]: 35
- Plant response rating, Crabgrass, Large [2, 11]: 80
- Plant response rating, Crabgrass, Large [2, 12]: 90
- Plant response rating, Crabgrass, Large [2, 14]: 90
- Plant response rating, Crabgrass, Large [2, 13]: 90
- Plant response rating, Soybean (soybean (Glycine max); [11]): 95
- Plant response rating, Soybean (soybean (Glycine max); [12]): 98
- Plant response rating, Soybean (soybean (Glycine max); [13]): 98
- Plant response rating, Kochia (kochia (Kochia scoparia); [11]): 55
- Plant response rating, Kochia (kochia (Kochia scoparia); [12]): 70
- Plant response rating, Kochia (kochia (Kochia scoparia); [14]): 80
- Plant response rating, Kochia (kochia (Kochia scoparia); [13]): 100
- Plant response rating, Bermudagrass [3, 11]: 75
- Plant response rating, Bermudagrass [3, 12]: 80
- Plant response rating, Bermudagrass [3, 14]: 85
- Plant response rating, Bermudagrass [3, 13]: 90
- Plant response rating, Bromegrass, Downy [4, 11]: 5
- Plant response rating, Bromegrass, Downy [4, 12]: 15
- Plant response rating, Bromegrass, Downy [4, 14]: 20
- Plant response rating, Bromegrass, Downy [4, 13]: 30
- Plant response rating, Velvetleaf [5, 11]: 75
- Plant response rating, Velvetleaf [5, 12]: 75
- Plant response rating, Velvetleaf [5, 13]: 85
- Plant response rating, Nutsedge, Yellow [6, 11]: 0
- Plant response rating, Nutsedge, Yellow [6, 12]: 20
- Plant response rating, Nutsedge, Yellow [6, 14]: 40
- Plant response rating, Nutsedge, Yellow [6, 13]: 55
- Plant response rating, Cupgrass, Woolly [7, 11]: 70
- Plant response rating, Cupgrass, Woolly [7, 12]: 75
- Plant response rating, Cupgrass, Woolly [7, 14]: 80
- Plant response rating, Cupgrass, Woolly [7, 13]: 90
- Plant response rating, Morningglory [8, 11]: 98
- Plant response rating, Morningglory [8, 12]: 100
- Plant response rating, Morningglory [8, 14]: 100
- Plant response rating, Morningglory [8, 13]: 100
- Plant response rating, Cocklebur [9, 11]: 85
- Plant response rating, Cocklebur [9, 12]: 90
- Plant response rating, Cocklebur [9, 14]: 100
- Plant response rating, Cocklebur [9, 13]: 100
- Plant response rating, Ryegrass, Italian [10, 11]: 0
- Plant response rating, Ryegrass, Italian [10, 12]: 0
- Plant response rating, Ryegrass, Italian [10, 13]: 10

SMILES: COCCn1c(-c2cccc(C)c2)ncc(C(=O)C2=C(O)C3CCC(C3)C2=O)c1=O (stereo not drawn) [Compound 233]
- Plant response rating, Wheat [1, 11]: 10
- Plant response rating, Wheat [1, 12]: 30
- Plant response rating, Wheat [1, 13]: 65
- Plant response rating, Crabgrass, Large [2, 11]: 80
- Plant response rating, Crabgrass, Large [2, 12]: 90
- Plant response rating, Crabgrass, Large [2, 14]: 98
- Plant response rating, Crabgrass, Large [2, 13]: 100
- Plant response rating, Soybean (soybean (Glycine max); [11]): 98
- Plant response rating, Soybean (soybean (Glycine max); [12]): 98
- Plant response rating, Soybean (soybean (Glycine max); [13]): 100
- Plant response rating, Kochia (kochia (Kochia scoparia); [11]): 70
- Plant response rating, Kochia (kochia (Kochia scoparia); [12]): 85
- Plant response rating, Bermudagrass [3, 11]: 95
- Plant response rating, Bermudagrass [3, 12]: 95
- Plant response rating, Bermudagrass [3, 14]: 100
- Plant response rating, Bermudagrass [3, 13]: 100
- Plant response rating, Bromegrass, Downy [4, 11]: 40
- Plant response rating, Bromegrass, Downy [4, 12]: 40
- Plant response rating, Bromegrass, Downy [4, 14]: 50
- Plant response rating, Bromegrass, Downy [4, 13]: 60
- Plant response rating, Velvetleaf [5, 11]: 80
- Plant response rating, Velvetleaf [5, 12]: 85
- Plant response rating, Velvetleaf [5, 13]: 100
- Plant response rating, Nutsedge, Yellow [6, 11]: 0
- Plant response rating, Nutsedge, Yellow [6, 12]: 5
- Plant response rating, Nutsedge, Yellow [6, 14]: 25
- Plant response rating, Nutsedge, Yellow [6, 13]: 25
- Plant response rating, Cupgrass, Woolly [7, 11]: 80
- Plant response rating, Cupgrass, Woolly [7, 12]: 85
- Plant response rating, Cupgrass, Woolly [7, 14]: 100
- Plant response rating, Cupgrass, Woolly [7, 13]: 100
- Plant response rating, Morningglory [8, 11]: 65
- Plant response rating, Morningglory [8, 12]: 80
- Plant response rating, Morningglory [8, 14]: 98
- Plant response rating, Morningglory [8, 13]: 100
- Plant response rating, Cocklebur [9, 11]: 90
- Plant response rating, Cocklebur [9, 12]: 100
- Plant response rating, Cocklebur [9, 14]: 100
- Plant response rating, Cocklebur [9, 13]: 100
- Plant response rating, Ryegrass, Italian [10, 11]: 30
- Plant response rating, Ryegrass, Italian [10, 12]: 45
- Plant response rating, Ryegrass, Italian [10, 13]: 60
